Laboratory results reported in ChEMBL document CHEMBL3860077, “Synthesis and pharmacological evaluation of conformationally constrained glutamic acid higher homologues” (Bioorg Med Chem, 2016).

Key:
[1] = Displacement of [3H]-KAIN from kainic acid receptor in rat cortical membranes by scintillation counting method; type: cell membranes
[2] = Displacement of [3H]-AMPA from AMPA receptor in rat cortical membranes by scintillation counting method; type: cell membranes
[3] = Displacement of [3H]-KAIN from kainic acid receptor in Sprague-Dawley rat brain synaptic membranes after 60 mins by scintillation counting method
[4] = Displacement of [3H]-AMPA from AMPA receptor in Sprague-Dawley rat brain synaptic membranes after 30 mins by scintillation counting method
Glutamate NMDA receptor = test: Displacement of [3H]-CGP39653 from NMDA receptor in Sprague-Dawley rat brain synaptic membranes after 60 mins by scintillation counting method

SMILES	IC50 [1] [µM]	IC50 [2] [µM]	IC50 [3] [µM]	IC50 [4] [µM]	Ki (Glutamate NMDA receptor) [µM]	pKi (Glutamate NMDA receptor)
N[C@@H](C[C@H]1CC(C(=O)O)=NO1)C(=O)O (racemic)	> 100	> 100				
N[C@@H](C[C@@H]1CC(c2ccc(C(=O)O)cc2)=NO1)C(=O)O (racemic)			> 100	> 100	> 100	
N[C@@H](C[C@@H]1CC(/C=C/C(=O)O)=NO1)C(=O)O (racemic)			> 100	> 100	> 100	
N[C@@H](C[C@@H]1CC(CCC(=O)O)=NO1)C(=O)O (racemic)			> 100	> 100	13	4.91
N[C@@H](C[C@@H]1CC(c2ccccc2C(=O)O)=NO1)C(=O)O (racemic)			> 100	> 100	3.6	
N[C@@H](C[C@H]1CC(c2ccc(C(=O)O)cc2)=NO1)C(=O)O (racemic)			> 100	> 100	> 100	
N[C@@H](C[C@H]1CC(CCC(=O)O)=NO1)C(=O)O (racemic)			> 100	> 100	> 100	
N[C@@H](C[C@H]1CC(/C=C/C(=O)O)=NO1)C(=O)O (racemic)			> 100	> 100	68	

Continued, values first:

IC50 [1] [µM]	IC50 [2] [µM]	IC50 [3] [µM]	IC50 [4] [µM]	Ki (Glutamate NMDA receptor) [µM]	pKi (Glutamate NMDA receptor)	SMILES
> 100	> 100					N[C@@H](C[C@@H]1CC(C(=O)O)=NO1)C(=O)O (racemic)
		> 100	> 100	22	4.69	N[C@@H](C[C@H]1CC(c2ccccc2C(=O)O)=NO1)C(=O)O (racemic)
		> 100	> 100	22		N[C@@H](C[C@@H]1CC(c2cccc(C(=O)O)c2)=NO1)C(=O)O (racemic)
		> 100	> 100	100		N[C@@H](C[C@H]1CC(c2cccc(C(=O)O)c2)=NO1)C(=O)O (racemic)
